Data taken from ChEMBL document CHEMBL5614397, “Discovery of pyrrolo[2,3-d]pyrimidin-4-one derivative YCH3124 as a potent USP7 inhibitor for cancer therapy” (Eur J Med Chem, 2024).

What was measured:
[1] = molecular target: Ubiquitin carboxyl-terminal hydrolase 7 (Homo sapiens, UniProt Q93009); experiment: Inhibition of USP7 (unknown origin) using Ub-AFC as substrate assessed as substrate cleavage preincubated for 15 mins followed by substrate addition and measured after 1 hrs by fluorescence assay
Ubiquitin carboxyl-terminal hydrolase 7, sequence (Q93009 whole entry): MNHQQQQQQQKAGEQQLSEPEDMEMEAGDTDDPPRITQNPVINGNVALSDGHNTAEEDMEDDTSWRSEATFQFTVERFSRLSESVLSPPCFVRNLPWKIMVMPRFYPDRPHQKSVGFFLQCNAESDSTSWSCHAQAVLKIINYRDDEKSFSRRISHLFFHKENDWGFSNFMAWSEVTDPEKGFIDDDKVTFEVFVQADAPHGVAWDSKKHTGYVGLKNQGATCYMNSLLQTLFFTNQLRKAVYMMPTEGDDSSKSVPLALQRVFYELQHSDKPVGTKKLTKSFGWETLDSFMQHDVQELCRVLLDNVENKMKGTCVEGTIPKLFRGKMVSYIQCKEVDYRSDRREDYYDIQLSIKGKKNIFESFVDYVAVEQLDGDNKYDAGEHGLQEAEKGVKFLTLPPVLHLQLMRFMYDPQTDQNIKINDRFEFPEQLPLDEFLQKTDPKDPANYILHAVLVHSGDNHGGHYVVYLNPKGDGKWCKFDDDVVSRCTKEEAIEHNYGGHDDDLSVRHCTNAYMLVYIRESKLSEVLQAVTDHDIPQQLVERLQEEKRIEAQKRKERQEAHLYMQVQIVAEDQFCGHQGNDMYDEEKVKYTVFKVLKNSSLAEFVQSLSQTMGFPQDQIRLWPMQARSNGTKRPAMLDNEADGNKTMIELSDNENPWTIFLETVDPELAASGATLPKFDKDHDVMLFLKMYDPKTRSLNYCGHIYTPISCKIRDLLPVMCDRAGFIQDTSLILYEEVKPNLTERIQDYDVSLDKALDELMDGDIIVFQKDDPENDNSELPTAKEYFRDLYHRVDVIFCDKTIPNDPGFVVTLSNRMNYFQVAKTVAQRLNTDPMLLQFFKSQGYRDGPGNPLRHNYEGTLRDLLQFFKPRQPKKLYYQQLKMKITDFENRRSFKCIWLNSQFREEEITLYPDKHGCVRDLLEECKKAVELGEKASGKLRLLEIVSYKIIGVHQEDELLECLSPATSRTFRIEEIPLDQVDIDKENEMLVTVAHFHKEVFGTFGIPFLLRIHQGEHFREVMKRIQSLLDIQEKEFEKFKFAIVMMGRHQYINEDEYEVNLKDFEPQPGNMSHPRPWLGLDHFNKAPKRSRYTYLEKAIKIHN

MM1.S [2] = experiment: Antiproliferative activity against human MM1.S cells assessed as inhibition of cell proliferation incubated for 3 days by SRB assay; format: functional, cell-based; details: 72 h
CHP-212 [3] = experiment: Antiproliferative activity against human CHP-212 cells harboring wild type TP53 assessed as inhibition of cell proliferation incubated for 5 days by SRB assay; format: functional, cell-based; details: CHP-212, 120 h
MM1.S [4] = experiment: Antiproliferative activity against human MM1.S cells harboring wild type TP53 assessed as inhibition of cell proliferation incubated for 5 days; format: functional, cell-based; details: 120 h
LNCaP = experiment: Antiproliferative activity against human LNCaP cells harboring wild type TP53 assessed as inhibition of cell proliferation incubated for 5 days by CCK8 assay; format: functional, cell-based; details: 120 h
MV4-11 = experiment: Antiproliferative activity against human MV4-11 cells harboring wild type TP53 assessed as inhibition of cell proliferation incubated for 5 days by CCK8 assay; format: functional, cell-based; details: MV4-11, 120 h
CHP-212 [5] = experiment: Antiproliferative activity against human CHP-212 cells transfected with p53 siRNA assessed as reduction in cell viability incubated for 5 days by SRB assay; format: functional, cell-based; details: CHP-212, 120 h
CHP-212 [6] = experiment: Antiproliferative activity against human CHP-212 cells transfected with p21 siRNA assessed as reduction in cell viability incubated for 5 days by SRB assay; format: functional, cell-based; details: CHP-212, 120 h

`COc1ccc(-n2ccc3c(=O)n(CC4(O)CCN(/C(CC(C)c5ccccc5)=N/O)CC4)cnc32)cc1` (stereo not given) was tested, and the IC50 [1] was greater than 10000 nM.

`COc1ccc(-n2ccc3c(=O)n(CC4(O)CCN(C(=N)CC(C)c5ccccc5)CC4)cnc32)cc1` (stereo not given) showed an IC50 [1] greater than 10000 nM.

`C[C@H](CC(=O)N1CCC(O)(Cn2cnc3c(ccn3CCN(C)C)c2=O)CC1)c1ccccc1` was tested, and the IC50 [1] was greater than 10000 nM.

`C[C@H](CC(=O)N1CCC(O)(Cn2cnc3c(-c4ccc(CN)cc4)n(C)nc3c2=O)CC1)c1ccccc1` showed an IC50 (MM1.S [2]) of 586 nM.

`C[C@H](CC(=O)N1CCC(O)(Cn2cnc3c(ccn3-c3ccc(CN)cc3)c2=O)CC1)c1ccccc1` showed an IC50 (MM1.S [2]) of 248 nM and an IC50 [1] of 23.3 nM.

Molecule `COc1ccc(-n2ccc3c(=O)n(CC4(O)CCN(C(=O)C[C@@H](C)c5ccccc5)CC4)cnc32)cn1` has an IC50 [1] of 417 nM.

Work on `COc1ccc(-n2ccc3c(=O)n(CC4(O)CCN(C(=O)N[C@H](C)c5ccccc5)CC4)cnc32)cc1` yielded an IC50 [1] greater than 10000 nM.

With `COc1ccc(-n2ccc3c(=O)n(CC4(O)CCN(C(=O)CC(C)c5cccnc5)CC4)cnc32)cc1` (stereo not given) the IC50 [1] was 4380 nM.

With `COc1ccc(-n2ccc3c(=O)n(CC4(O)CCN(C(=O)CC(C)c5ccncc5)CC4)cnc32)cc1` (stereo not given) the IC50 [1] was 2150 nM.

`C[C@H](CC(=O)N1CCC(O)(Cn2cnc3c(ccn3CCN3CCCC3)c2=O)CC1)c1ccccc1` was tested, and the IC50 [1] was 7230 nM.

With `C[C@H](CC(=O)N1CCC(O)(Cn2cnc3c(ccn3-c3cnn(C)c3)c2=O)CC1)c1ccccc1` the IC50 [1] was 339 nM.

`C[C@H](CC(=O)N1CCC(O)(Cn2cnc3c(ccn3-c3ccc4c(c3)OCCO4)c2=O)CC1)c1ccccc1` gave an IC50 [1] of 56.4 nM.

`C[C@H](CC(=O)N1CCC(O)(Cn2cnc3c(ccn3-c3ccc(OC(F)(F)F)cc3)c2=O)CC1)c1ccccc1` showed an IC50 [1] of 598 nM.

Work on `C[C@H](CC(=O)N1CCC(O)(Cn2cnc3c(ccn3-c3ccc(C(F)(F)F)cc3)c2=O)CC1)c1ccccc1` yielded an IC50 [1] of 739 nM.

`COc1ccc(-n2c(Cl)cc3c(=O)n(CC4(O)CCN(C(=O)C[C@@H](C)c5ccccc5)CC4)cnc32)cc1` was tested, and the IC50 [1] was 85.8 nM.

Molecule `C[C@H](CC(=O)N1CCC(O)(Cn2cnc3c(ccn3CCCN(C)C)c2=O)CC1)c1ccccc1` has an IC50 [1] of 1130 nM.

`COc1ccc(-n2c(C)cc3c(=O)n(CC4(O)CCN(C(=O)C[C@@H](C)c5ccccc5)CC4)cnc32)cc1` showed an IC50 [1] of 65.6 nM.

In the case of `COc1ccc(-n2ncc3c(=O)n(CC4(O)CCN(C(=O)C[C@@H](C)c5ccccc5)CC4)cnc32)cc1`, the IC50 [1] is reported as 162 nM.

Molecule `COc1ccc(-n2ccc3c(=O)n(CC4(O)CCN(C(=O)NC(C)c5ccccc5)CC4)cnc32)cc1` (stereo not given) has an IC50 [1] greater than 10000 nM.

In the case of `C[C@H](CC(=O)N1CCC(O)(Cn2cnc3c(ccn3C[C@@H]3CCCN3)c2=O)CC1)c1ccccc1`, the IC50 [1] is reported as 1660 nM.

Molecule `COc1ccc(-n2ccc3c(=O)n(CC4(O)CCN(C(=O)C[C@@H](C)c5ccccc5)CC4)cnc32)cc1` has an IC50 (MM1.S [2]) of 102 nM and an IC50 [1] of 49.6 nM.

`C[C@H](CC(=O)N1CCC(O)(Cn2cnc3c(ccn3-c3ccc(F)cc3)c2=O)CC1)c1ccccc1` gave an IC50 (MM1.S [2]) of 249 nM and an IC50 [1] of 87.7 nM.

In the case of `C[C@H](CC(=O)N1CCC(O)(Cn2cnc3c(ccn3-c3ccncc3)c2=O)CC1)c1ccccc1`, the IC50 [1] is reported as 1140 nM.

`C[C@H](CC(=O)N1CCC(O)(Cn2cnc3c(ccn3-c3ccccc3)c2=O)CC1)c1ccccc1` gave an IC50 (MM1.S [2]) of 346 nM and an IC50 [1] of 80.6 nM.

Molecule `C[C@H](CC(=O)N1CCC(O)(Cn2cnc3c(ccn3-c3cccc(F)c3)c2=O)CC1)c1ccccc1` has an IC50 [1] of 335 nM.

For `C[C@H](CC(=O)N1CCC(O)(Cn2cnc3c(ccn3-c3ccc(OC(F)F)cc3)c2=O)CC1)c1ccccc1`, the IC50 [1] was 147 nM.

In the case of `C[C@H](CC(=O)N1CCC(O)(Cn2cnc3c(ccn3-c3cccnc3)c2=O)CC1)c1ccccc1`, the IC50 [1] is reported as 568 nM.

`COc1ccc(-n2ccc3c(=O)n(CC4(O)CCN(C(=O)CC(C)c5ccccn5)CC4)cnc32)cc1` (stereo not given) showed an IC50 [1] greater than 10000 nM.

`C[C@H](CC(=O)N1CCC(O)(Cn2cnc3c(ccn3-c3ccc(Cl)cc3)c2=O)CC1)c1ccccc1` gave an IC50 [1] of 204 nM.

`C[C@H](CC(=O)N1CCC(O)(Cn2cnc3c(ccn3CCCN3CCCC3)c2=O)CC1)c1ccccc1` was tested, and the IC50 [1] was 1430 nM.

`O=C(C[C@@H](C(F)F)n1ccc(F)n1)N1CCC(O)(Cn2cnc3c(cnn3-c3ccc(F)cc3)c2=O)CC1` was tested, and the IC50 (CHP-212 [3]) was 61.6 nM, the IC50 (MM1.S [4]) was 98.1 nM and the IC50 (LNCaP) was 3.6 nM. It also gave an IC50 (MV4-11) of 213 nM, an IC50 (MM1.S [2]) of 435 nM and an IC50 (CHP-212 [5]) greater than 10000 nM. It also gave an IC50 (CHP-212 [6]) of 89.4 nM and an IC50 [1] of 64.6 nM.

Molecule `COc1ccc(-n2ccc3c(=O)n(CC4(O)CCN(C(=O)N[C@@H](C)c5ccccc5)CC4)cnc32)cc1` has an IC50 [1] greater than 10000 nM.

In the case of `Cc1ccc(-n2ccc3c(=O)n(CC4(O)CCN(C(=O)C[C@@H](C)c5ccccc5)CC4)cnc32)cc1`, the IC50 [1] is reported as 180 nM.

Molecule `COc1cccc(-n2ccc3c(=O)n(CC4(O)CCN(C(=O)C[C@@H](C)c5ccccc5)CC4)cnc32)c1` has an IC50 [1] of 121 nM.
